From US5874442A, “Tricyclic amides useful for inhibition of G-protein function and for treatment of proliferative disease” (Schering-Plough Corporation, priority 1996, dated 1999)

Key:
[1] = system: AsPc-1; assay: Soft agar assay; assay type: cell-based; settings: Homo sapiens, ASPC1; AsPc-1 (pancreatic) K ras mutation; read-out: IC50, inhibition of human tumor cell growth, soft agar
Procedure: (§1) Anchorage-independent growth is a characteristic of tumorigenic cell lines. Human tumor cells are suspended in growth medium containing 0.3% agarose and an indicated concentration of a farnesyl transferase inhibitor. The solution is overlayed onto growth medium solidified with 0.6% agarose containing the same concentration of farnesyl transferase inhibitor as the top layer. After the top layer is solidified, plates are incubated for 10-16 days at 37° C. under 5% CO2 to allow colony outgrowth. After incubation, the colonies are stained by overlaying the agar with a solution of MTT (3-[4,5-dimethylthiazol-2-yl]-2,5-diphenyltetrazolium bromide, Thiazolyl blue) (1 mg/mL in PBS). Colonies are counted and the IC50's determined.

[2] = system: HTB 183 (NCI H661); assay: Soft agar assay; assay type: cell-based; settings: Homo sapiens; HTB 183 (NCI H661) (NSCLC) ras mut. not detected; read-out: IC50, inhibition of human tumor cell growth, soft agar
Procedure: as §1

[3] = system: MDA MB453 (breast); assay: Soft agar assay; assay type: cell-based; settings: Homo sapiens, MDA-MB-453, read-out: IC50, inhibition of human tumor cell growth, soft agar
Procedure: as §1

[4] = system: HBL100; assay: Soft agar assay; assay type: cell-based; settings: Homo sapiens, HBL-100; HBL100 (breast) ras mut. not detected; read-out: IC50, inhibition of human tumor cell growth, soft agar
Procedure: as §1

[5] = system: MCF-7; assay: Soft agar assay; assay type: cell-based; settings: Homo sapiens, MCF7; MCF-7 (breast) ras mut. not detected; read-out: IC50, inhibition of human tumor cell growth, soft agar
Procedure: as §1

[6] = system: HTB 173 (NCI H146); assay: Soft agar assay; assay type: cell-based; settings: Homo sapiens; HTB 173 (NCI H146) (SCLC) ras mut. not detected; read-out: IC50, inhibition of human tumor cell growth, soft agar
Procedure: as §1

[7] = system: PC3 (prostate); assay: Soft agar assay; assay type: cell-based; settings: Homo sapiens, read-out: IC50, inhibition of human tumor cell growth, soft agar
Procedure: as §1

[8] = system: DU 145; assay: Soft agar assay; assay type: cell-based; settings: Homo sapiens; DU 145 (prostate) ras mut. not detected; read-out: IC50, inhibition of human tumor cell growth, soft agar
Procedure: as §1

[9] = system: HTB 119 (NCI H69); assay: Soft agar assay; assay type: cell-based; settings: Homo sapiens; HTB 119 (NCI H69) (SCLC); read-out: IC50, inhibition of human tumor cell growth, soft agar
Procedure: as §1

[10] = system: BT474 (breast); assay: Soft agar assay; assay type: cell-based; settings: Homo sapiens, BT-474, read-out: IC50, inhibition of human tumor cell growth, soft agar
Procedure: as §1

[11] = system: HPAF II; assay: Soft agar assay; assay type: cell-based; settings: Homo sapiens; HPAF II (pancreatic) K ras mutation; read-out: IC50, inhibition of human tumor cell growth, soft agar
Procedure: as §1

[12] = system: DLD 1; assay: Soft agar assay; assay type: cell-based; settings: Homo sapiens; DLD 1 (colon) K ras mutation; read-out: IC50, inhibition of human tumor cell growth, soft agar
Procedure: as §1

[13] = system: MDA MB 468; assay: Soft agar assay; assay type: cell-based; settings: Homo sapiens; MDA MB 468 (breast) ras mut. not detected; read-out: IC50, inhibition of human tumor cell growth, soft agar
Procedure: as §1

[14] = system: Du4475; assay: Soft agar assay; assay type: cell-based; settings: Homo sapiens, DU-4475; Du4475 (breast) ras mut. not detected; read-out: IC50, inhibition of human tumor cell growth, soft agar
Procedure: as §1

[15] = system: H ras NIH 3T3; assay: Soft agar assay; assay type: cell-based; settings: Mus musculus, NIH3T3, read-out: IC50, inhibition of human tumor cell growth, soft agar
[16] = system: K ras NIH 3T3; assay: Soft agar assay; assay type: cell-based; settings: Mus musculus, NIH3T3, read-out: IC50, inhibition of human tumor cell growth, soft agar
[17] = system: SW620-BAG human colon carcinoma cells expressing an activated K-ras gene; assay: Cell mat assay, SW620-BAG tumor cells; assay type: cell-based; settings: Homo sapiens, SW-620, 336 h, read-out: Tumor (SW620) IC50, Mat assay, 14 d
Procedure: Compound-induced colony inhibition was assayed by addition of serial dilutions of compound directly to the growth medium 24 h after tumor cell planting, and incubating cells for an additional 14 d to allow colony formation. Assays were terminated by rinsing monolayers twice with phosphate-buffered saline (PBS), fixing the monolayers with a 1% glutaraldehyde solution in PBS, then visualizing tumor cells by staining with X-Gal (Price, J., et al., Lineage analysis in the vertebrate nervous system by retrovirus-mediated gene transfer, Proc. Natl. Acad. Sci.84, 156-160(1987)). […] Both IC50 values were obtained by determining the density of tumor cells and mat cells by visual inspection and enumeration of cells per colony and the number of colonies under the microscope.
Additional assays were carried out by following essentially the same procedure as described above, but with substitution of alternative indicator tumor cell lines in place of the T24-BAG cells. The assays were conducted using either DLD-1-BAG human colon carcinoma cells expressing as activated K-ras gene or SW620-BAG human colon carcinoma cells expressing an activated K-ras gene.

[18] = system: DLD-1 (human colon carcinoma cells); assay: In vivo anti-tumor studies, subcutaneous DLD-1 tumors in athymic nu/nu mice; parameters: species or system athymic nu/nu female mice; settings: Mus musculus, DLD-1, po, […], read-out: Average % Tumor Inhibition
Procedure: Tumor bearing animals are selected and randomized when the tumors are established. Animals are treated with vehicle (β-cyclodextrin for i.p. or corn oil for p.o.) only or with a compound of the present invention in vehicle four times a day (QID) for 7 days per week for 4 weeks. The percent inhibition of tumor growth relative to vehicle controls is determined by tumor measurements.

NC(=O)N1CCC(CC(=O)N2CCC([C@H]3c4ncc(Br)cc4CCc4cc(Cl)cc(Br)c43)CC2)CC1 [Example 10]
IC50 [1]: 3 µM | IC50 [2]: 0.5 µM | IC50 [3]: 0.6 µM | IC50 [4]: < 0.6 µM | IC50 [5]: < 0.6 µM | IC50 [6]: 0.05 µM | IC50 [7]: 1.25 µM | IC50 [8]: 0.6 µM | IC50 [9]: 0.3 µM | IC50 [10]: 1 µM | IC50 [11]: < 0.5 µM | IC50 [12]: 2.5 µM | IC50 [13]: 0.6 µM | IC50 [14]: 0.6 µM | IC50 [15]: 0.075 µM | IC50 [16]: 0.4 µM | IC50 [17]: 3.1 µM | inhibition in vivo at 10 mg/kg [18]: 49% | inhibition in vivo at 50 mg/kg [18]: 77%
